Assay results taken from patent US9284321B2, “Piperazino[1,2-a]indol-1-ones and [1,4]diazepino[1,2-a]indol-1-one” (Hoffmann-La Roche Inc., priority 2012, dated 2016).

Assays:
[1] = tested on: human embryonic stem cell derived neural stem cells (NSCs); test: Neural Stem Cell Proliferation Assay (neurogenesis assay, ATP levels by CellTiterGlo); type: cell-based; settings: 96 h, compound concentration at which 150% activity of control (100%) is reached, NSC proliferation by ATP level after 4 days incubation, dose response 8 μM to 8 nM
Method: Neurogenic properties of small molecules are determined based on the proliferation of human embryonic stem cell derived neural stem cells (NSCs) which were derived via a dual smad inhibition as previously described (Chambers, S. M., et al., Highly efficient neural conversion of human ES and iPS cells by dual inhibition of SMAD signaling, Nature biotechnology, 2009. 27(3): p. 275-80.)
Compounds respond is measured by the increase in cells based on ATP levels
(Promega:CellTiterGlo®) after an incubation period of 4 days.
NSCs are thawed and expanded over 3 passages. On the 14th day, NSCs are seeded in Polyornithin/Laminin coated 384 well plates at a cell density of 21′000 cells/cm^2 in a media volume of 38 μl.
4 hours after cell seeding, compound solutions are added at a volume of 2 μl. Stock solutions of the compounds (water, 5% DMSO) are diluted to obtain a dose response (11 points, dilution factor is 2), ranging from 8 μM to 8 nM. Controls are run to consistently determine the neurogenic properties of the cells:
Negative (neutral) control is cell culture Media (final DMSO concentration: 0.25%).
• 1. cell culture Media+100 ng/ml FGF2 (final DMSO concentration: 0.1%) • 2. cell culture Media+20 ng/ml EGF (final DMSO concentration: 0.1%) • 3. cell culture Media+100 ng/ml Wnt3a (final DMSO concentration: 0.1%)
After 4 days incubation at 37° C., 5% CO2, the amount of ATP per well is quantified. The ATP concentration is proportional to the cell number. ATP is quantified by using the Promega CellTiterGlo® kit. The CellTiterGlo® reagents contain a cell lysis buffer, a thermo stable luciferase (UltraGlo™ recombinant luciferase), magnesium and luciferin. Luciferin reacts with ATP producing oxyluciferin, AMP and light. The luminescence signal is proportional to the ATP content.
The value of negative (neutral) control is determined for each assay plate by taking the average of 16 negative control wells. The neurogenic compound response is calculated for each compound as (compound/Negative Control)*100.
The values of EC150 from the dose response curve are determined for each test compound. The EC150 is the compound concentration at which 150% activity of control (100%) is reached.

SMILES | melting point [°C] | EC (150% of control) [1] [µM]
Cc1c2n(c3c(-c4ccc(C#N)cc4)cc(C#N)cc13)CCNC2=O [Example 166, 6-(4-Cyano-phenyl)-10-methyl-1-oxo-1,2,3,4-tetrahydro-pyrazino[1,2-a]indole-8-carbonitrile] | 323 | 0.028
COc1ccc(-c2cc(C#N)cc3c(C)c4n(c23)CCNC4=O)cc1 [Example 247, 6-(4-Methoxyphenyl)-10-methyl-1-oxo-3,4-dihydro-2H-pyrazino[1,2-a]indole-8-carbonitrile] | 285 | 0.03
Cc1c2n(c3c(-c4ccc(C(F)(F)F)cc4)cc(C#N)cc13)CCNC2=O [Example 165, 10-Methyl-1-oxo-6-(4-trifluoromethyl-phenyl)-1,2,3,4-tetrahydro-pyrazino[1,2-a]indole-8-carbonitrile] | 282 | 0.018
Cc1c2n(c3c(-c4ccnc(F)c4)cc(F)cc13)CCNC2=O [Example 139, 8-Fluoro-6-(2-fluoro-pyridin-4-yl)-10-methyl-3,4-dihydro-2H-pyrazino[1,2-a]indol-1-one] | 240 | 0.027
Cc1c2n(c3c(-c4cccnc4)cc(C#N)cc13)CCNC2=O [Example 282, 10-Methyl-1-oxo-6-pyridin-3-yl-3,4-dihydro-2H-pyrazino[1,2-a]indole-8-carbonitrile] | 273 | 0.96
COc1ccc(-c2cc(C#N)cc3c(C)c4n(c23)CCCNC4=O)cc1 [Example 262, 7-(4-Methoxyphenyl)-11-methyl-1-oxo-2,3,4,5-tetrahydro-[1,4]diazepino[1,2-a]indole-9-carbonitrile] | 277 | 0.029
Cc1c2n(c3c(-c4ccc(Cl)nc4)cc(Cl)cc13)CCNC2=O [Example 112, 8-Chloro-6-(6-chloro-pyridin-3-yl)-10-methyl-3,4-dihydro-2H-pyrazino[1,2-a]indol-1-one] | 276 | 0.012
C[C@@H]1CNC(=O)c2cc3cc(F)cc(-c4ccccc4)c3n21 [Example 4, (R)-8-Fluoro-4-methyl-6-phenyl-3,4-dihydro-2H-pyrazino[1,2-a]indol-1-one] | 243.5 | 0.37
Cc1c2n(c3c(-c4cc(Cl)cc(Cl)c4)cc(C#N)cc13)CCNC2=O [Example 293, 6-(3,5-Dichlorophenyl)-10-methyl-1-oxo-3,4-dihydro-2H-pyrazino[1,2-a]indole-8-carbonitrile] | 347 | –
Cc1c2n(c3c(-c4cccc(C#N)c4)cc(Cl)cc13)CCNC2=O [Example 117, 3-(8-Chloro-10-methyl-1-oxo-1,2,3,4-tetrahydro-pyrazino[1,2-a]indol-6-yl)-benzonitrile] | 199 | 0.4
O=C1NCCn2c1c(C(F)(F)F)c1cc(Cl)cc(-c3ccc(Cl)cc3)c12 [Example 187, 8-Chloro-6-(4-chlorophenyl)-10-(trifluoromethyl)-3,4-dihydro-2H-pyrazino[1,2-a]indol-1-one] | 214 | 0.088
Cc1c2n(c3c(-c4cccc(Cl)c4)cc(C#N)cc13)CCNC2=O [Example 268, 6-(3-Chlorophenyl)-10-methyl-1-oxo-3,4-dihydro-2H-pyrazino[1,2-a]indole-8-carbonitrile] | 254 | –
Cc1c2n(c3c(-c4cncnc4)cc(C#N)cc13)CCCNC2=O [Example 299, 11-Methyl-1-oxo-7-pyrimidin-5-yl-2,3,4,5-tetrahydro-[1,4]diazepino[1,2-a]indole-9-carbonitrile] | 304 | –
Cc1c2n(c3c(-c4ccc(Cl)nc4)cc(F)cc13)CCNC2=O [Example 144, 6-(6-Chloro-pyridin-3-yl)-8-fluoro-10-methyl-3,4-dihydro-2H-pyrazino[1,2-a]indol-1-one] | – | 0.081

Continued, in another order:

melting point [°C] | SMILES | EC (150% of control) [1] [µM]
218 | COc1ccc(-c2cc(Cl)cc3cc4n(c23)CCCNC4=O)cc1 [Example 54, 9-Chloro-7-(4-methoxy-phenyl)-2,3,4,5-tetrahydro-[1,4]diazepino[1,2-a]indol-1-one] | 0.07
237 | COc1ccc(-c2cc(F)cc3c(C)c4n(c23)CCNC4=O)cc1 [Example 75, 8-Fluoro-6-(4-methoxy-phenyl)-10-methyl-3,4-dihydro-2H-pyrazino[1,2-a]indol-1-one] | 0.005
294.5 | Cc1ccc(-c2cc(F)cc3cc4n(c23)[C@H](C)CNC4=O)cc1 [Example 8, (R)-8-Fluoro-4-methyl-6-p-tolyl-3,4-dihydro-2H-pyrazino[1,2-a]indol-1-one] | 0.048
231 | Cc1cc(-c2ccc(F)c(F)c2)c2c(c1)cc1n2CCCNC1=O [Example 55, 7-(3,4-Difluoro-phenyl)-9-methyl-2,3,4,5-tetrahydro-[1,4]diazepino[1,2-a]indol-1-one] | 2.8
298 | Cc1c2n(c3c(-c4ccc(Cl)cc4)cc(C#N)cc13)CCCNC2=O [Example 199, 7-(4-Chlorophenyl)-11-methyl-1-oxo-2,3,4,5-tetrahydro-[1,4]diazepino[1,2-a]indole-9-carbonitrile] | 0.053
316.5 | N#Cc1cc(-c2ccc(Cl)cc2)c2c(c1)cc1n2CCNC1=O [Example 77, 6-(4-Chloro-phenyl)-1-oxo-1,2,3,4-tetrahydro-pyrazino[1,2-a]indole-8-carbonitrile] | 0.02
230.5 | O=C1NCCCn2c1cc1cc(Cl)cc(-c3ccc(F)c(F)c3)c12 [Example 46, 9-Chloro-7-(3,4-difluoro-phenyl)-2,3,4,5-tetrahydro-[1,4]diazepino[1,2-a]indol-1-one] | 0.69
211 | N#Cc1cc(-c2cc(F)cc(F)c2)c2c(c1)cc1n2CCCNC1=O [Example 238, 7-(3,5-Difluorophenyl)-1-oxo-2,3,4,5-tetrahydro-[1,4]diazepino[1,2-a]indole-9-carbonitrile] | 1
258.5 | Cc1ccc(-c2cc(F)cc3cc4n(c23)CCCNC4=O)cc1 [Example 30, 9-Fluoro-7-p-tolyl-2,3,4,5-tetrahydro-[1,4]diazepino[1,2-a]indol-1-one] | 0.036
224.5 | N#Cc1cc(-c2ccc(Cl)c(C(F)(F)F)c2)c2c(c1)cc1n2CCCNC1=O [Example 254, 7-[4-Chloro-3-(trifluoromethyl)phenyl]-1-oxo-2,3,4,5-tetrahydro-[1,4]diazepino[1,2-a]indole-9-carbonitrile] | –
314.5 | N#Cc1cc(-c2ccc(N)nc2)c2c(c1)cc1n2CCCNC1=O [Example 264, 7-(6-Aminopyridin-3-yl)-1-oxo-2,3,4,5-tetrahydro-[1,4]diazepino[1,2-a]indole-9-carbonitrile] | –
215 | CC(C)(C)c1ccc(-c2cc(C#N)cc3cc4n(c23)CCCNC4=O)cc1 [Example 270, 7-(4-tert-Butylphenyl)-1-oxo-2,3,4,5-tetrahydro-[1,4]diazepino[1,2-a]indole-9-carbonitrile] | –
277 | N#Cc1cc(-c2cncnc2)c2c(c1)cc1n2CCCNC1=O [Example 273, 1-Oxo-7-pyrimidin-5-yl-2,3,4,5-tetrahydro-[1,4]diazepino[1,2-a]indole-9-carbonitrile] | –
264.5 | N#Cc1cc(-c2ccc(F)nc2)c2c(c1)cc1n2CCCNC1=O [Example 272, 7-(6-Fluoropyridin-3-yl)-1-oxo-2,3,4,5-tetrahydro-[1,4]diazepino[1,2-a]indole-9-carbonitrile] | –
252 | N#Cc1cc(-c2cccnc2)c2c(c1)cc1n2CCCNC1=O [Example 263, 1-Oxo-7-pyridin-3-yl-2,3,4,5-tetrahydro-[1,4]diazepino[1,2-a]indole-9-carbonitrile] | –
244 | N#Cc1cc(-c2cc(Cl)cc(Cl)c2)c2c(c1)cc1n2CCCNC1=O [Example 286, 7-(3,5-Dichlorophenyl)-1-oxo-2,3,4,5-tetrahydro-[1,4]diazepino[1,2-a]indole-9-carbonitrile] | –
204 | N#Cc1cc(-c2ccc(Cl)nc2)c2c(c1)cc1n2CCCNC1=O [Example 265, 7-(6-Chloropyridin-3-yl)-1-oxo-2,3,4,5-tetrahydro-[1,4]diazepino[1,2-a]indole-9-carbonitrile] | –
